In PubChem BioAssay (NCI):
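Method: 48-hour compound exposure of cells in 96-well plates, five concentrations, linear interpolation of endpoints. GI50 = concentration required for 50% inhibition of growth. Definition used: TGI = concentration required for complete inhibition of growth.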

Columns and labels:
Test in all cases: growth of human tumour cells (NCI), 48 h
HCC-2998 colon = tested on: HCC-2998 colon
SN12C renal = tested on: SN12C renal
HCT-15 colon = tested on: HCT-15 colon
SW-620 colon = tested on: SW-620 colon
COLO 205 colon = tested on: COLO 205 colon
K-562 leukemia = tested on: K-562 leukemia
LOX IMVI melanoma = tested on: LOX IMVI melanoma
A549 NSCLC = tested on: A549 NSCLC
CAKI-1 renal = tested on: CAKI-1 renal
SK-MEL-2 melanoma = tested on: SK-MEL-2 melanoma

Compound	TGI (HCC-2998 colon)	TGI (SN12C renal)	TGI (HCT-15 colon)	TGI (SW-620 colon)	TGI (COLO 205 colon)	TGI (K-562 leukemia)	TGI (LOX IMVI melanoma)	TGI (A549 NSCLC)	TGI (CAKI-1 renal)	TGI (SK-MEL-2 melanoma)	GI50 (SK-MEL-2 melanoma)	GI50 (HCC-2998 colon)	GI50 (SN12C renal)	GI50 (HCT-15 colon)	GI50 (SW-620 colon)	GI50 (COLO 205 colon)	GI50 (K-562 leukemia)	GI50 (A549 NSCLC)	GI50 (CAKI-1 renal)	GI50 (LOX IMVI melanoma)
CCN(CC)CCSc1nc2c([N+](=O)[O-])cccc2[nH]1	> 100 µM	> 100 µM	> 100 µM	> 100 µM	> 100 µM	> 100 µM	> 100 µM	> 100 µM	> 100 µM											
COC(=O)c1c(OC(C)=O)ccc2c1c1c(n2Cc2ccccc2)C(=O)c2ccccc2C1=O	30.3 µM	37.5 µM	41.9 µM		30.5 µM	87.3 µM		83.9 µM	51.2 µM	36.2 µM										
O=C1Nc2ccccc2/C1=C\c1c(Cl)[nH]c2ccccc12	1.68 µM	17.5 µM	17.5 µM	5.45 µM	1.23 µM	7.49 µM	6.15 µM	13.3 µM	7.77 µM	6.67 µM										
COc1ccc([N+](=O)[O-])cc1[I+]c1cc([N+](=O)[O-])ccc1OC	> 100 µM	> 100 µM	> 100 µM	> 100 µM	> 100 µM	> 100 µM	73.1 µM	> 100 µM	> 100 µM	> 100 µM										
N/C(=N/O)c1cn(C2OC(CO)C(O)C2O)c2ncnc(NO)c12 (stereo unspecified)	7.12 µM	> 100 µM	> 100 µM	> 46.1 µM	0.623 µM	> 100 µM	4.53 µM	> 100 µM		0.176 µM										
N=C(N)c1ccc(-c2ccc(-c3ccccc3)o2)cc1	3.15 µM	7.61 µM	3.24 µM	3.32 µM	3.42 µM	4.99 µM		6.24 µM	9.85 µM	3.98 µM	2.14 µM	1.51 µM	2.72 µM	1.64 µM	1.72 µM	1.66 µM	2.22 µM	2.51 µM	2.78 µM	
CC[n+]1c(/C=C/c2ccc(N(CCCl)CCCl)cc2)ccc2cc(Br)ccc21	3.13 µM	10.6 µM		14.7 µM	128 µM		2.87 µM			1.28 µM				2520 µM			125 µM	1370 µM	1650 µM	
COc1cccc(/C=N/[N-]C(N)=O)c1[O-].[OH3+].[Zn+2]	> 100 µM	> 100 µM	> 100 µM	> 100 µM	> 100 µM	> 100 µM	> 100 µM	> 100 µM	> 100 µM	> 100 µM										
O=C(Nc1ccc(-n2cc(-c3ccncc3)c(-c3ccc(O)c(Cl)c3)n2)cc1)c1ccc(Cl)c(Cl)c1	> 32.5 µM	> 32.5 µM	> 32.5 µM	> 32.5 µM	> 32.5 µM	> 32.5 µM	2.88 µM	> 32.5 µM	> 32.5 µM	7.41 µM	0.932 µM	2.03 µM	2.95 µM	0.708 µM	2.08 µM	> 32.5 µM	0.966 µM	2.87 µM	2.21 µM	0.779 µM
Cc1ccc(CCCC(=O)O)cc1C		> 100 µM	> 100 µM	> 100 µM		> 100 µM	> 100 µM	> 100 µM	> 100 µM	> 100 µM										
CNC1=C(C)C(=O)C2=C(C1=O)C(COC(N)=O)C1(OC)C3NC3CN21 (stereo unspecified)	1.82 µM		3.52 µM	> 100 µM	1.35 µM	> 100 µM	1.41 µM	> 100 µM	2.78 µM	4.27 µM										
CC(=O)NC1C(OCc2ccccc2)OC(CO)C(O)C1OCC(=O)NC(C)C(=O)NC(CCC(=O)Nc1ccc2c(c1)CN1C(=O)c3ccccc3C1=N2)C(N)=O (stereo unspecified)	> 100 µM	> 100 µM	> 100 µM	> 100 µM	> 100 µM	> 100 µM	> 100 µM	> 100 µM	> 100 µM	> 100 µM										
